From patent US20100113421A1, “NON-NUCLEOSIDE REVERSE TRANSCRIPTASE INHIBITORS” (priority 2006, published 2010)

Tests used:
[1] = system: HIV strain containing the Y181C mutation; assay: Spread assay, Y181C mutant strain; assay type: cell-based; conditions: Human immunodeficiency virus 1; spread assay, 10% FBS, Y181C mutant strain; read-out: CIC95
Summary of the method: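 Acute HIV-1 infection of T-lymphoid cells run in the presence of 10% FBS, […]; potency expressed as CIC95.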

[2] = system: mutant strain containing both the K103N and Y181C mutations; assay: Spread assay, mutant strain containing both K103N and Y181C; assay type: cell-based, HIV; conditions: Human immunodeficiency virus 1; analogous spread assay, K103N and Y181C double mutant strain; read-out: CIC95
Experimental: Assays for the inhibition of acute HIV-1 infection of T-lymphoid cells (alternatively referred to herein as the “spread assay”) were conducted in accordance with Vacca, J. P. et al., Proc. Natl. Acad. Sci. USA 1994, 91: 4096. The assays (using 10% FBS) tested for inhibition of wild type HIV-1 and of HIV strains containing the Y181C or K103N mutation. […] (Note that the compound of Example 6 was tested only up to a 833 nM concentration and the CIC95 value was determined to be >833 nM. The compound of Example 78 was not tested in the Y1818C assay.) The compounds of Examples 1 to 119 (including Examples 70A and 70B) had CIC95 values of less than 1000 nanomolar in the assay employing the K103N mutant strain. In an analogous assay employing a mutant strain containing both the K103N and Y181C mutations, the compounds of Examples 70A, 70B and 78-115 had CIC95 values of less than 1000 nanomolar.

| SMILES | IC95 [1] | IC95 [2] |
| --- | --- | --- |
| Cc1c(C(=O)N2CCCc3sccc3C2)[nH]c(C(N)=O)c1S(=O)(=O)c1cc(Cl)cc(Cl)c1 [Example 84, 3-[(3,5-dichlorophenyl)sulfonyl]-4-methyl-5-(4,6,7,8-tetrahydro-5H-thieno[3,2-c]azepin-5-ylcarbonyl)-1H-pyrrole-2-carboxamide] | < 8 µM | < 1 µM |
| COc1ccc2c(c1)CCCN(C(=O)c1[nH]c(C(N)=O)c(S(=O)(=O)c3cc(Cl)cc(Cl)c3)c1C)C2 [Example 85, 3-[(3,5-dichlorophenyl)sulfonyl]-4-methyl-5-(7-methoxy-1,3,4,5-tetrahydro-2H-2-benzazepin-2-ylcarbonyl)-1H-pyrrole-2-carboxamide] | < 8 µM | < 1 µM |
| Cc1c(C(=O)N2CCCc3cc(O)ccc3C2)[nH]c(C(N)=O)c1S(=O)(=O)c1cc(Cl)cc(Cl)c1 [Example 86, 3-[(3,5-dichlorophenyl)sulfonyl]-4-methyl-5-(7-hydroxy-1,3,4,5-tetrahydro-2H-2-benzazepin-2-ylcarbonyl)-1H-pyrrole-2-carboxamide] | < 8 µM | < 1 µM |
| COc1ccc2c(c1)CCCN(C(=O)c1[nH]c(C(N)=O)c(S(=O)(=O)c3cc(C)cc(C)c3)c1C)C2 [Example 87, 3-[(3,5-dimethylphenyl)sulfonyl]-4-methyl-5-(7-methoxy-1,3,4,5-tetrahydro-2H-2-benzazepin-2-ylcarbonyl)-1H-pyrrole-2-carboxamide] | < 8 µM | < 1 µM |
| Cc1cc(C)cc(S(=O)(=O)c2c(C(N)=O)[nH]c(C(=O)N3CCCc4cc(O)ccc4C3)c2C)c1 [Example 88, 3-[(3,5-dimethylphenyl)sulfonyl]-4-methyl-5-(7-hydroxy-1,3,4,5-tetrahydro-2H-2-benzazepin-2-ylcarbonyl)-1H-pyrrole-2-carboxamide] | < 8 µM | < 1 µM |
| COc1ccc2c(c1)CN(C(=O)c1[nH]c(C(N)=O)c(S(=O)(=O)c3cc(C)cc(C)c3)c1C)CCC2 [Example 89, 3-[(3,5-dimethylphenyl)sulfonyl]-4-methyl-5-(8-methoxy-1,3,4,5-tetrahydro-2H-2-benzazepin-2-ylcarbonyl)-1H-pyrrole-2-carboxamide] | < 8 µM | < 1 µM |
| Cc1cc(C)cc(S(=O)(=O)c2c(C(N)=O)[nH]c(C(=O)N3CCCc4ccc(O)cc4C3)c2C)c1 [Example 90, 3-[(3,5-dimethylphenyl)sulfonyl]-4-methyl-5-(8-hydroxy-1,3,4,5-tetrahydro-2H-2-benzazepin-2-ylcarbonyl)-1H-pyrrole-2-carboxamide] | < 8 µM | < 1 µM |
| COc1ccc2c(c1)CN(C(=O)c1[nH]c(C(N)=O)c(S(=O)(=O)c3ccccc3)c1C)CCC2 [Example 91, 3-(phenylsulfonyl)-4-methyl-5-(8-methoxy-1,3,4,5-tetrahydro-2H-2-benzazepin-2-ylcarbonyl)-1H-pyrrole-2-carboxamide] | < 8 µM | < 1 µM |
| Cc1c(C(=O)N2CCCc3ccc(O)cc3C2)[nH]c(C(N)=O)c1S(=O)(=O)c1ccccc1 [Example 92, 3-(phenylsulfonyl)-4-methyl-5-(8-hydroxy-1,3,4,5-tetrahydro-2H-2-benzazepin-2-ylcarbonyl)-1H-pyrrole-2-carboxamide] | < 8 µM | < 1 µM |
| COc1ccc2c(c1)CN(C(=O)c1[nH]c(C(N)=O)c(S(=O)(=O)c3cccc(F)c3)c1C)CCC2 [Example 93, 3-[(3-fluorophenyl)sulfonyl]-4-methyl-5-(8-methoxy-1,3,4,5-tetrahydro-2H-2-benzazepin-2-ylcarbonyl)-1H-pyrrole-2-carboxamide] | < 8 µM | < 1 µM |
| Cc1c(C(=O)N2CCCc3ccc(O)cc3C2)[nH]c(C(N)=O)c1S(=O)(=O)c1cccc(F)c1 [Example 94, 3-[(3-fluorophenyl)sulfonyl]-4-methyl-5-(8-hydroxy-1,3,4,5-tetrahydro-2H-2-benzazepin-2-ylcarbonyl)-1H-pyrrole-2-carboxamide] | < 8 µM | < 1 µM |
| COc1ccc2c(c1)CN(C(=O)c1[nH]c(C(N)=O)c(S(=O)(=O)c3cccc(C(F)(F)F)c3)c1C)CCC2 [Example 95, 3-[(3-(1,1,1-trifluoromethyl)phenyl)sulfonyl]-4-methyl-5-(8-methoxy-1,3,4,5-tetrahydro-2H-2-benzazepin-2-ylcarbonyl)-1H-pyrrole-2-carboxamide] | < 8 µM | < 1 µM |
| Cc1c(C(=O)N2CCCc3sc(Cl)cc3C2)[nH]c(C(N)=O)c1S(=O)(=O)c1cc(Cl)cc(Cl)c1 [Example 96, 3-[(3,5-Dichlorophenyl)sulfonyl]-4-methyl-5-[(2-chloro-4,6,7,8-tetrahydro-5H-thieno[3,2-c]azepin-5-yl)carbonyl]-1H-pyrrole-2-carboxamide] | < 8 µM | < 1 µM |
| Cc1c(C(=O)N2CCCc3sc(S(C)(=O)=O)cc3C2)[nH]c(C(N)=O)c1S(=O)(=O)c1cc(Cl)cc(Cl)c1 [Example 97] | < 8 µM | < 1 µM |
| Cc1cc(C)cc(S(=O)(=O)c2c(C(N)=O)[nH]c(C(=O)N3CCCc4sc(S(C)(=O)=O)cc4C3)c2C)c1 [Example 98, 3-[(3,5-Dimethylphenyl)sulfonyl]-4-methyl-5-[(2-(methylsulfonyl)-4,6,7,8-tetrahydro-5H-thieno[3,2-c]azepin-5-yl)carbonyl]-1H-pyrrole-2-carboxamide] | < 8 µM | < 1 µM |
| CC(C)c1c(C(=O)N(C)Cc2ccnc(N)c2)[nH]c(C(N)=O)c1S(=O)(=O)c1cccc(F)c1 [Example 99, N5-[(2-aminopyridin-4-yl)methyl]-3-[(3-fluorophenyl)sulfonyl]-4-isopropyl-N5-methyl-1H-pyrrole-2,5-dicarboxamide] | < 8 µM | < 1 µM |
| CC(C)c1c(C(=O)N(C)Cc2ccnc(N)c2)[nH]c(C(N)=O)c1S(=O)(=O)c1cc(F)cc(F)c1 [Example 100, N5-[(2-aminopyridin-4-yl)methyl]-3-[(3,5-difluorophenyl)sulfonyl]-4-isopropyl-N5-methyl-1H-pyrrole-2,5-dicarboxamide] | < 8 µM | < 1 µM |
| CC(C)c1c(C(=O)N(C)Cc2ccnc(N)c2)[nH]c(C(N)=O)c1S(=O)(=O)c1ccccc1 [Example 101] | < 8 µM | < 1 µM |
| Cc1cc(C)cc(S(=O)(=O)c2c(C(N)=O)[nH]c(C(=O)N(C)Cc3ccnc(N)c3)c2C(C)C)c1 [Example 102, N5-[(2-aminopyridin-4-yl)methyl]-3-[(3,5-dimethylphenyl)sulfonyl]-4-isopropyl-N5-methyl-1H-pyrrole-2,5-dicarboxamide] | < 8 µM | < 1 µM |
| Cc1cc(C)cc(S(=O)(=O)c2c(C(N)=O)[nH]c(C(=O)N(C)Cc3cc(N)ncc3F)c2C)c1 [Example 103, N5-[(2-amino-5-fluoropyridin-4-yl)methyl]-3-[(3,5-dimethylphenyl)sulfonyl]-N5,4-dimethyl-1H-pyrrole-2,5-dicarboxamide] | < 8 µM | < 1 µM |
| CC(C)c1c(C(=O)N(C)Cc2cc(N)ncc2F)[nH]c(C(N)=O)c1S(=O)(=O)c1ccccc1 [Example 104] | < 8 µM | < 1 µM |
| Cc1cc(C)cc(S(=O)(=O)c2c(C(N)=O)[nH]c(C(=O)N(C)Cc3ccncc3Cl)c2C)c1 [Example 105, N5-[(3-chloropyridin-4-yl)methyl]-3-[(3,5-dimethylphenyl)sulfonyl]-N5,4-dimethyl-1H-pyrrole-2,5-dicarboxamide] | < 8 µM | < 1 µM |
| CC(C)c1c(C(=O)N(C)Cc2ccncc2Cl)[nH]c(C(N)=O)c1S(=O)(=O)c1ccccc1 [Example 106, N2-[(3-chloropyridin-4-yl)methyl]-3-isopropyl-N2-methyl-4-(phenylsulfonyl)-1H-pyrrole-2,5-dicarboxamide] | < 8 µM | < 1 µM |
| Cc1cc(C)cc(S(=O)(=O)c2c(C(N)=O)[nH]c(C(=O)N(C)Cc3ccnc(Cl)c3F)c2C)c1 [Example 107, N5-[(2-chloro-3-fluoropyridin-4-yl)methyl]-3-[(3,5-dimethylphenyl)sulfonyl]-N5,4-dimethyl-1H-pyrrole-2,5-dicarboxamide] | < 8 µM | < 1 µM |
| CC(C)c1c(C(=O)N(C)Cc2ccnc(Cl)c2F)[nH]c(C(N)=O)c1S(=O)(=O)c1ccccc1 [Example 108, N2-[(2-chloro-3-fluoropyridin-4-yl)methyl]-3-isopropyl-N2-methyl-4-(phenylsulfonyl)-1H-pyrrole-2,5-dicarboxamide] | < 8 µM | < 1 µM |
| Cc1cc(C)cc(S(=O)(=O)c2c(C(N)=O)[nH]c(C(=O)N(C)Cc3ccncc3F)c2C)c1 [Example 109, 3-[(3,5-dimethylphenyl)sulfonyl]-N5-[(3-fluoropyridin-4-yl)methyl]-N5,4-dimethyl-1H-pyrrole-2,5-dicarboxamide] | < 8 µM | < 1 µM |
| CC(C)c1c(C(=O)N(C)Cc2ccncc2F)[nH]c(C(N)=O)c1S(=O)(=O)c1ccccc1 [Example 110, N2-[(3-fluoropyridin-4-yl)methyl]-3-isopropyl-N2-methyl-4-(phenylsulfonyl)-1H-pyrrole-2,5-dicarboxamide] | < 8 µM | < 1 µM |
